According to patent US20240277636A1, “COMBINATION COMPRISING AT LEAST ONE SEROTONIN REUPTAKE INHIBITOR AND AT LEAST ONE STIMULATOR OF POTASSIUM-CHLORIDE COTRANSPORTER TYPE 2 AND ITS MEDICAL USE” (Université de Bordeaux, priority 2021, published 2024):

System: neuropathic mice
Conditions: conditioned 1 h 30 after injection, post- versus pre-conditioning, result in words
Protocol: 14 days after mice are free to explore during 10 minutes, a 2-chamber arena separated by a narrow corridor. A camera placed above the device allows tracking of mice movements. […] 1 H 30 after injection of either fluoxetine alone or combination of fluoxetine and CLP290, mice are restricted to one chamber during 10 minutes. 2 days after mice are put again and free to explore the entire arena. […] As control experiment, the same procedure is performed in neuropathic mice with fluoxetine and CLP290 vehicle.

`CNCCC(Oc1ccc(C(F)(F)F)cc1)c1ccccc1` (stereo not shown) [fluoxetine] was tested, and the “time spent in the conditioned chamber (CPP)” value was “not”.
